Patent US5216003A, “Diacid-containing benzimidazole compounds for treatment of neurotoxic injury” (G. D. Searle & Co., priority 1992, dated 1993)

How the values were obtained:
[1] = system: tonic hindlimb extensor seizures; assay: Anticonvulsant Assay (electroconvulsive shock); assay type: in vivo, male CD-1 mice; settings: 30 min prior to ECS; for Protected from ECS (% of Mice): 56 mg/kg s.c., n = 10, vehicle 5 (n = 20)
motor function = assay: inverted screen test for motor impairment; assay type: in vivo, male CD-1 mice; settings: for Exhibiting Motor Impairments (% of Mice): 56 mg/kg s.c., n = 10, vehicle 10 (n = 20)
Description: This assay was used to determine the extent of in vivo protection against convulsions afforded by compound of the invention to mice subjected to artifically-induced convulsive conditions. Naive male CD-l mice (20-30 grams body weight) from Charles River Laboratories, Portage Mich. served as subjects. The mice had ad libitum access to food and water prior to testing and were maintained on a 12 hour light/12 hour dark schedule with testing during the light portion of the cycle. The mice were tested for motor impairment by use of the inverted screen test approximately 5 minutes prior to anticonvulsant testing. The inverted screen apparatus was similar to that described by Coughenour et al [Pharmacol. Biochem. Behav., 6, 351-353 (1977)]. Mice were placed on 13×13 cm pieces of #4 wire mesh screen which were mounted horizontally. The screens were then slowly inverted. […] Tonic hindlimb extensor seizures were then produced by application of electroconvulsive shock through concave electrodes to the eyeballs. Both the eyeballs and the electrodes were moistened with 0.9% saline to improve conductivity. The ECS stimulus was generated by use of a Grass model S48D stimulator with a Grass model CCUlA constant current unit in series with the output. Stimulation consisted of 10 msec pulses of a 60 pps single phase square wave for a duration of 200 msec. The current was held constant at 15 mA. Compound of Example #1 was suspended in a vehicle of 0.9% saline with a few drops of PG-Tween added. PG-Tween is a 1:1 mixture of propylene glycol and Tween 80. The Example #1 compound or vehicle was administered s.c. in a volume of 10 ml/kg body weight 30 minutes prior to application of the ECS stimulus. […] There were 10 mice in each treatment group.

Kainate (KA) receptor = assay: [3H]kainate (KA) binding assay on synaptic plasma membranes; set-up: species or system rat; settings: 0.5 nM [3H]kainate, pH 7.4, 0-4 °C, 60 min
Description: (§1) Synaptic plasma membranes (SPM) were prepared as previously described [Monahan, J. B. and Michel, J., "Identification and Characterization of an N-methyl-D-aspartate-specific L[^3 H]glutamate Recognition Site in Synaptic Plasma Membranes", J. Neurochem., 48, 1699-1708 (1987)]. The SPM were stored at a concentration of 10-15 mg/ml in 0.32M sucrose, 0.5 mM EDTA, 1 mM MgSO4, 5 mM Tris/SO4, pH 7.4, under liquid nitrogen. The identity and purity of the subcellular fractions were confirmed by both electron microscopy and marker enzymes. Protein concentrations were determined by using a modification of the method of Lowry [Ohnishi, S. T. and Barr, J. K., "A Simplified Method of Quantitating Proteins Using the Biuret and Phenol Reagents", Anal. Biochem., 86, 193-197 (1978)]. The SPM were treated identically for the [^3 H]AMPA (QUIS), [^3 H]kainate and sodium-dependent L-[^3 H]-glumatate binding assays. […] Beckman MP scintillation cocktail containing 7 mL/l acetic acid was then added and the samples counted on a Beckman LS 5800 or 3801 liquid scintillation counter with automatic corrections for quenching and counting efficiency. […] Radioligand binding to the synaptic plasma membranes was analyzed using Scatchard and Hill transformations and the Ki values of the compounds determined using logit-log transformations. […]

[2] = molecular target: [3H]MK-801 binding in rat SPM; assay: [3H]MK-801 Binding assay; settings: 5.0 nM [3H]MK-801, 10.0 nM L-glutamate, pH 7.4, 25 °C, 30 min
Description: Modulation of [^3 H]MK-801 binding was performed using Triton X-100 (0.04% v/v) treated rat SPM that had been extensively washed. Assay incubations were at 25° C. for 30 min. and contained 5.0 nM [^3 H]MK-801, L-glutamate (10.0 nM), and various concentrations of the tested compound in 50 mM Tris/acetate, pH 7.4. The assay was stopped by rapid filtration, using Brandel MB-48 Harvester, through Whatman GF/B filters treated with 0.05% polyethylenimine and the samples washed four times with 2.0 mL cold buffer. The radioactivity associated with the filter was determined by liquid scintillation spectrometry. Nonspecific binding was defined using 60 μM MK-801. IC50 were determined using a logit-log transformation of the binding data.

[3] = molecular target: NMDA receptor (N-methyl-D-aspartate-specific L-[3H]glutamate recognition site in synaptic plasma membranes); assay: NMDA-Selective Glutamate Binding Assay, L-[3H]glutamate; set-up: species or system rat; settings: 12.5 nM L-[3H]glutamate, pH 7.4, 0-4 °C, 10 min; read-out: [3H]GLU Ki
Description: as §1

[4] = system: pyramidal cells in CA1 of the hippocampus; assay: Forebrain Ischemia Assay (bilateral carotid occlusion, neuron count); assay type: in vivo, Mongolian gerbil; settings: for # of Neurons/Field: 7 days
Description: This assay was used to determine the extent of protection afforded by compound of the invention to neural brain cells subjected to ischemic conditions. Male Mongolian gerbils, 50-70 gm, were used as subjects. Compound Example #1 was injected i.p. 30 minutes prior to carotid occlusion into 6 gerbils […]. In preparation for surgical procedures, the animals were lightly anesthetized with methoxyflurane and placed upside down on a heated pad with their snout within a nosecone. A 70:30 mixture of nitrous oxide and oxygen containing 0.5% halothane was circulated through the nosecone to provide continuous anesthesia throughout the surgical procedure. A midline incision was made in the neck and the carotid arteries were exposed. A length of suture thread was placed under each carotid. The thread was then tightened around each carotid and pressure applied to the thread to insure flow was occluded. Flow was occluded for 4-5 minutes and then the thread was removed. The carotids were visually inspected to confirm that reflow had occurred. The wound was then closed with autoclips and the gerbils allowed to recover. Following surgery, the gerbils were kept alive for 7 days. They were anesthetized with 100 mg/kg sodium pentobarbital and perfused transcardially with saline (with heparin) followed by buffered formalin. The brain was removed, trimmed and prepared for histological processing. Sections (10 microns) were stained with thionin. At 7 days following this type of transient global forebrain ischemia, damaged neurons in the vulnerable CAl region of the hippocampus have degenerated and been cleared away by glia. Quantification of the resulting lesion is made by counting the pyramidal cell somata in a 0.5 mm length of CAl of the hippocampus on the section corresponding to P 1.7 mm in the gerbil brain atlas. […] The effects of compound of Ex. #1 were assessed by comparing the number of neural cells found in the hippocampus of subjects treated with Ex. #1 compound with the cell number found in the appropriate control groups. […]

[5] = system: NMDA receptor (rat brain hippocampal tissue); settings: evaluation of CPP binding to rat brain hippocampal tissue; Murphy et al 1987; cited from earlier work

Exhibiting Motor Impairments (% of Mice) (motor function; Test A) | Exhibiting Motor Impairments (% of Mice) (motor function; Test B) | KA Ki (Kainate (KA) receptor) [µM] | Ki [2] [µM] | Ki [3] [µM] | Structure (SMILES) | Protected from ECS (% of Mice) ([1]; Test A) | Protected from ECS (% of Mice) ([1]; Test B) | protection against tonic hindlimb extensor seizures ([1]; s.c.) | motor function (motor function; s.c., similar dose range as anticonvulsant effect) | # of Neurons/Field ([4]; 300 mg/kg i.p. 30 min prior to carotid occlusion, control 19.8, p < 0.01) | # of Neurons/Field ([4]; 500 mg/kg i.p. 30 min prior to carotid occlusion, control 39.8, p < 0.005) | cell loss ([4]; i.p., 300 and 500 mg/kg, vs control, Mann-Whitney U test) | NMDA antagonism [5]
10 % of Mice | 0 % of Mice | > 100 | 3.9 | 1.6 | O=C(O)c1nc2cccc(CP(=O)(O)O)c2[nH]1 [Example 1, 2-carboxy-4-phosphonomethylbenzimidazole] | 50 % of Mice | 20 % of Mice | protected against tonic hindlimb extensor seizures in a dose-dependent fashion | impaired motor function in a similar dose range | 44.3 # of Neurons/Field | 137.4 # of Neurons/Field | significantly reduced | 
 |  |  |  |  | O=C(O)C1CN(CCCP(=O)(O)O)CCN1 (stereo not shown) [CPP, 3-(2-carboxypiperazin-4-yl)propyl-1-phosphonic acid] |  |  |  |  |  |  |  | potent and selective NMDA antagonist
